# Laboratory results published in patent US4492650A, “A54556 Antibiotics and process for production thereof” (Eli Lilly and Company, priority 1982, dated 1985).
# Several values for one entry are separate records, joined by “and”; a condition that tells them apart may be missing. Identical values can stand only once. Like-named read-outs stand apart in the source and are kept apart here. Bridge positions count the residues as written; N and C are the ends. Square brackets hold non-standard residues; d marks the D form. Peptide text beside a SMILES is read from it. * marks the point of attachment. ξ: configuration not given here. Octatrienoyl(2E,4E,6E) = C/C=C/C=C/C=C/C(=O)*; ξPro(4ξ-Me) = CC1CNC(C(=O)O)C1; X2 = CCC/C=C/C=C/C(=O)*; NMeA = CN[CH](C)C(=O)O; X1 = O=C(/C=C/C=C/CO)*
# Columns and labels:
# [1] = test system: Streptococcus sp. (Group D) X66; assay: Disc-plate sensitivity; type: cell-based; conditions: second test, Table 13; for Zone diameter: listed as B; for zone of inhibition at 300 µg/disc / zone of inhibition at 30 µg/disc: Streptococcus; for zone of inhibition at 30 µg/disc: read-out: Zone diameter, 30 mcg./disc
# [2] = test system: Bacteroides corrodens 1874; assay: MIC, agar-dilution method; type: cell-based; conditions: Eikenella corrodens
# Peptococcus prevoti 1281 = assay: MIC, agar-dilution method; type: cell-based
# anaerobic bacteria = assay: Activity against anaerobic bacteria; type: cell-based; conditions: agar-dilution method
# [3] = test system: Fusobacterium necrophorum 6054A; assay: MIC, agar-dilution method; type: cell-based
# Text: (§1) Antibiotic A54556 factors A, B, C, D, E, F, G, and H have been tested and found to be active against a number of anaerobic bacteria, as recorded in Table 14, which follows, the MIC values having been determined by the agar-dilution method.
# [4] = test system: Propionibacterium acnes 79; assay: MIC, agar-dilution method; type: cell-based; conditions: Cutibacterium acnes
# Text: as §1
# [5] = test system: Bacteroides melaninogenicus 1856/28; assay: MIC, agar-dilution method; type: cell-based; conditions: Prevotella intermedia
# Text: as §1
# [6] = test system: Clostridium difficile 2994; assay: MIC, agar-dilution method; type: cell-based; conditions: Clostridioides difficile
# Text: as §1
# [7] = test system: Bacteroides fragilis 1877; assay: MIC, agar-dilution method; type: cell-based
# Text: as §1
# [8] = test system: Peptostreptococcus intermedius 1264; assay: MIC, agar-dilution method; type: cell-based
# Text: as §1
# [9] = test system: Bacteroides thetaiotaomicron 1438; assay: MIC, agar-dilution method; type: cell-based
# Text: as §1
# Bacteroides fragilis 111 = assay: MIC, agar-dilution method; type: cell-based
# Text: as §1
# [10] = test system: Eubacterium aerofaciens 1235; assay: MIC, agar-dilution method; type: cell-based; conditions: Collinsella aerofaciens
# Text: as §1
# [11] = test system: Clostridium septicum 1128; assay: MIC, agar-dilution method; type: cell-based
# Text: as §1
# [12] = test system: Bacteroides melaninogenicus 2736; assay: MIC, agar-dilution method; type: cell-based
# Text: as §1
# [13] = test system: Bacteroides fragilis 1936B; assay: MIC, agar-dilution method; type: cell-based
# Text: as §1
# [14] = test system: Staphylococcus aureus 3055; conditions: second test, Table 13, benzylpenicillin-susceptible
# [15] = test system: Staphylococcus aureus V41; conditions: second test, Table 13, benzylpenicillin resistant
# [16] = test system: Peptostreptococcus anaerobius 1428; assay: MIC, agar-dilution method; type: cell-based
# [17] = test system: Staphylococcus epidermidis EPI1; conditions: second test, Table 13
# S. pyogenes = assay: In vivo protection against experimental bacterial infection in mice; conditions: Streptococcus pyogenes, sc, two doses subcutaneously
# Procedure: (§2) When two doses of test compound were administered subcutaneously to mice in illustrative infections, the activity is measured as an ED50 value [effective does in mg./kg. to protect fifty percent of the test animals: See Warren Wick et al., J. Bacteriol. 81, 233-235 (1961)]. The ED50 values for these antibiotic A54556 factors are recorded in Table 15, which follows.
# [18] = test system: Clostridium perfringens 81; assay: microbe, parasite or virus in culture; type: cell-based
# [19] = test system: Peptococcus asaccharolyticus 1302; assay: MIC, agar-dilution method; type: cell-based; conditions: Peptoniphilus asaccharolyticus
# [20] = test system: Streptococcus pyogenes (Group A) C203; conditions: second test, Table 13
# [21] = test system: Bacteroides vulgatis 1211; assay: MIC, agar-dilution method; type: cell-based
# [22] = test system: Fusobacterium symbiosum 1470; assay: MIC, agar-dilution method; type: cell-based
# [23] = test system: Streptococcus pneumoniae Park I; conditions: second test, Table 13
# [24] = test system: experimental bacterial infections; assay: In vivo antimicrobial activity against experimental bacterial infections; conditions: mice, subcutaneously
# Procedure: as §2
# Electrometric titration = type: physicochemical; conditions: 66 percent dimethylformamide in water
# Text: Antibiotic A54556 factor A is a tan, amorphous solid. […] As determined by electron impact and field desorption mass spectrometry, A54556 factor A has a molecular weight of 718.
# Culture A54556 = assay: Sensitivity of Culture A54556 to antibiotics, sensitivity discs on ISP medium No. 2 agar; also: key: +: sensitive, zones of inhibition; -: resistant, no zones of inhibition; type: cell-based, Streptomyces hawaiiensis NRRL 15010; conditions: 30 mcg. disc
# Procedure: The sensitivity of Culture A54556 to several antibiotics at specific concentrations was determined with sensitivity discs padded onto the surface of plates containing ISP medium No. 2 agar seeded with 2% inoculum of Culture A54556.
# [25] = read-out: Zone diameter, 300 mcg./disc
Structure (SMILES),zone of inhibition at 30 µg/disc [1],MIC [2],activity against a number of anaerobic bacteria (anaerobic bacteria),MIC [3],MIC [4],MIC [5],MIC [6],MIC [7],MIC [8],MIC [9],MIC (Bacteroides fragilis 111),MIC [10],MIC [11],MIC [12],MIC [13],Zone diameter ([14]; 30 mcg./disc),Zone diameter ([14]; 300 mcg./disc),Zone diameter ([15]; 30 mcg./disc),Zone diameter ([15]; 300 mcg./disc),ED50 (S. pyogenes),also measured
"C/C=C/C=C/C=C/C(=O)NC(Cc1ccccc1)C(=O)NC1COC(=O)C2CCCN2C(=O)C(C)NC(=O)C(C)N(C)C(=O)C2CCCN2C1=O (stereo not shown) [Factor B] ({Octatrienoyl(2E,4E,6E)}-FSP[NMeA]AP; ester 2-C; configuration not given here)",22 mm,> 128 µg/mL,active,16 µg/mL,> 128 µg/mL,> 128 µg/mL,> 128 µg/mL,> 128 µg/mL,> 128 µg/mL,16 µg/mL,32 µg/mL,16 µg/mL,16 µg/mL,> 128 µg/mL,16 µg/mL,18 mm. and 20 mm.,26 mm.,15 mm. and 18 mm.,19 mm. and 26 mm.,> 70 mg/kg,"Zone diameter ([1]; 30 mcg./disc): 23 mm.; Zone diameter ([1]; 300 mcg./disc): 27 mm.; zone of inhibition at 300 µg/disc ([1]; 300 mcg./disc, read-out: Zone diameter): 30 mm; MIC (Peptococcus prevoti 1281; agar-dilution, read-out: MIC): 8 µg/mL; MIC ([16]; agar-dilution, read-out: MIC): 8 µg/mL; Zone diameter ([17]; 30 mcg./disc, listed as B): 13 mm. and 16 mm.; Zone diameter ([17]; 300 mcg./disc, listed as B): 21 mm. and 27 mm.; MIC [18]: 16 µg/mL; MIC ([19]; agar-dilution, read-out: MIC): 8 µg/mL; Zone diameter ([20]; 30 mcg./disc, listed as B): 18 mm. and 26 mm.; Zone diameter ([20]; 300 mcg./disc, listed as B): 24 mm. and 30 mm.; MIC ([21]; agar-dilution, read-out: MIC): 32 µg/mL; MIC ([22]; agar-dilution, read-out: MIC): 8 µg/mL; Zone diameter ([23]; 30 mcg./disc): 25 mm.; Zone diameter ([23]; 30 mcg./disc, listed as B): 20 mm.; Zone diameter ([23]; 300 mcg./disc): 32 mm.; Zone diameter ([23]; 300 mcg./disc, listed as B): 35 mm.; in vivo antimicrobial activity against experimental bacterial infections [24]: have shown in vivo antimicrobial activity; titratable groups (Electrometric titration): no titratable groups"
CC(=O)OCC1=C(C(=O)O)N2C(=O)[C@@H](NC(=O)Cc3cccs3)[C@H]2SC1 [Cephalothin],,,,,,,,,,,,,,,,,,,,,Antibiotic Sensitivity of Culture A54556 (Culture A54556): -
CC1CC2C(=O)N(C)C(C)C(=O)NC(C)C(=O)N3CCCC3C(=O)OCC(NC(=O)C(Cc3ccccc3)NC(=O)/C=C/C=C/CO)C(=O)N2C1 (stereo not shown) [Factor H] (X1-FS[ξPro(4ξ-Me)][NMeA]AP; ester 2-C; configuration not given here),21 mm,> 128 µg/mL,active,> 128 µg/mL,> 128 µg/mL,> 128 µg/mL,> 128 µg/mL,> 128 µg/mL,> 128 µg/mL,> 128 µg/mL,> 128 µg/mL,> 128 µg/mL,> 128 µg/mL,> 128 µg/mL,> 128 µg/mL,8 mm.,11 mm.,10 mm.,14 mm.,9.9 mg/kg,"zone of inhibition at 300 µg/disc [1, 25]: 27 mm; MIC (Peptococcus prevoti 1281): > 128 µg/mL; MIC [16]: 128 µg/mL; Zone diameter ([17]; 30 mcg./disc): 12 mm.; Zone diameter ([17]; 300 mcg./disc): 24 mm.; MIC [18]: > 128 µg/mL; MIC [19]: > 128 µg/mL; Zone diameter ([20]; 30 mcg./disc): 30 mm.; Zone diameter ([20]; 300 mcg./disc): 32 mm.; MIC [21]: > 128 µg/mL; MIC [22]: > 128 µg/mL; Zone diameter ([23]; 30 mcg./disc): 25 mm.; Zone diameter ([23]; 300 mcg./disc): 36 mm.; in vivo antimicrobial activity against experimental bacterial infections [24]: have shown in vivo antimicrobial activity; titratable groups (Electrometric titration): no titratable groups"
"O=C(N[C@H](CO)[C@H](O)c1ccc([N+](=O)[O-])cc1)C(Cl)Cl [Chloromycetin (CAP), Chloromycetin]",,,,,,,,,,,,,,,,,,,,,Antibiotic Sensitivity of Culture A54556 (Culture A54556): trace
CCC/C=C/C=C/C(=O)NC(Cc1ccccc1)C(=O)NC1COC(=O)C2CCCN2C(=O)C(C)NC(=O)C(C)N(C)C(=O)C2CC(C)CN2C1=O (stereo not shown) [Factor D] (X2-FS[ξPro(4ξ-Me)][NMeA]AP; ester 2-C; configuration not given here),26 mm,> 128 µg/mL,active,> 128 µg/mL,> 128 µg/mL,> 128 µg/mL,> 128 µg/mL,> 128 µg/mL,> 128 µg/mL,> 128 µg/mL,> 128 µg/mL,> 128 µg/mL,> 128 µg/mL,> 128 µg/mL,> 128 µg/mL,29 mm.,30 mm.,27 mm.,28 mm.,> 70 mg/kg,"zone of inhibition at 300 µg/disc [1, 25]: 33 mm; MIC (Peptococcus prevoti 1281): > 128 µg/mL; MIC [16]: 128 µg/mL; Zone diameter ([17]; 30 mcg./disc): 25 mm.; Zone diameter ([17]; 300 mcg./disc): 34 mm.; MIC [18]: > 128 µg/mL; MIC [19]: 128 µg/mL; Zone diameter ([20]; 30 mcg./disc): 24 mm.; Zone diameter ([20]; 300 mcg./disc): 32 mm.; MIC [21]: > 128 µg/mL; MIC [22]: > 128 µg/mL; Zone diameter ([23]; 30 mcg./disc): 30 mm.; Zone diameter ([23]; 300 mcg./disc): 34 mm.; in vivo antimicrobial activity against experimental bacterial infections [24]: have shown in vivo antimicrobial activity; titratable groups (Electrometric titration): no titratable groups"
CN(C)C1C(=O)C(C(N)=O)=C(O)C2(O)C(=O)C3=C(O)c4c(O)cccc4C(C)(O)C3CC12 (stereo not shown) [Tetracycline],,,,,,,,,,,,,,,,,,,,,Antibiotic Sensitivity of Culture A54556 (Culture A54556): +
